# In ChEMBL document CHEMBL1201862, “PubChem BioAssay data set” (2004):
# The source made the active and inactive calls. Cut-off read from the data, not from the text of the source, for most assays here: actives have a measured EC50 and inactives only a lower limit.
# How the values were obtained:
# [1] = target: Cytochrome P450 2D6 (Homo sapiens, UniProt P10635);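 note: CYP2D6 member of a cytochrome P450 panel assay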
# [2] = target: T1, Heat shock factor protein 1 (Mus musculus, UniProt P38532); assay: enhancement of HSF1-driven luciferase signal – cell-based, NIH3T3, luminescence, dose retest, confirmation (AID 435004); assay type: functional;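 note: stress induced by proteasome inhibitor MG132 added 30 min after compound; luciferase reporter driven by HSF1 response element in NIH3T3 cells; actives raise luminescence as potentiators of the MG132 stress response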
# T1 sequence (P38532 whole entry): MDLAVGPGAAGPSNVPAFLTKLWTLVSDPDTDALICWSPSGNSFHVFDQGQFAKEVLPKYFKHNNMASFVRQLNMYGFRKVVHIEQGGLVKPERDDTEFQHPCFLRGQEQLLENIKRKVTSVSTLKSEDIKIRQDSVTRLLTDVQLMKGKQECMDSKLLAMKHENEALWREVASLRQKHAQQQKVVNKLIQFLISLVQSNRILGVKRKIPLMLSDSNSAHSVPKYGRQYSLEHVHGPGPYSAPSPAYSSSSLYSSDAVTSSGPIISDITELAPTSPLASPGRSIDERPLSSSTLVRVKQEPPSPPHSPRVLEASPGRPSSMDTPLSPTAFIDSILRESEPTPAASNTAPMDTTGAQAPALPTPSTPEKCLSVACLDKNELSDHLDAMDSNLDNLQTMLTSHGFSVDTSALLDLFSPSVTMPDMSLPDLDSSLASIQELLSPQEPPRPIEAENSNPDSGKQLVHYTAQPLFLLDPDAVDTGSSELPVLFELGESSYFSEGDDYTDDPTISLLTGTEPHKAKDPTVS
# [3] = target: T2, Corticotropin-releasing factor receptor 2/Corticotropin-releasing factor-binding protein (Homo sapiens, UniProt P24387+Q13324); assay: activators of CRF receptor 2 with binding protein – uHTS hits, confirmation (AID 602473); assay type: functional; details: read-out: EC50_Mean
# T2 sequence (Q13324 whole entry): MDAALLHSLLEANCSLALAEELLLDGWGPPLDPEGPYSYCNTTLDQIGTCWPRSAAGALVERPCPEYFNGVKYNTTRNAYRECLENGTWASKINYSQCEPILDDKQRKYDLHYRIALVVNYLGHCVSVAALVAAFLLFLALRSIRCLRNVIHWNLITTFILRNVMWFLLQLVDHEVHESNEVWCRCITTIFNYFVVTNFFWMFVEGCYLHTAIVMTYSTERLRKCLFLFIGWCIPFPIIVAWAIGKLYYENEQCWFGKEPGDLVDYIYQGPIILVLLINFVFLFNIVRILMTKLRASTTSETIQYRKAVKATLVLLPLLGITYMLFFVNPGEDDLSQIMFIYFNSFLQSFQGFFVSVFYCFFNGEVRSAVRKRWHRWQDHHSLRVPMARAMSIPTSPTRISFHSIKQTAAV
# T2 sequence (P24387 whole entry): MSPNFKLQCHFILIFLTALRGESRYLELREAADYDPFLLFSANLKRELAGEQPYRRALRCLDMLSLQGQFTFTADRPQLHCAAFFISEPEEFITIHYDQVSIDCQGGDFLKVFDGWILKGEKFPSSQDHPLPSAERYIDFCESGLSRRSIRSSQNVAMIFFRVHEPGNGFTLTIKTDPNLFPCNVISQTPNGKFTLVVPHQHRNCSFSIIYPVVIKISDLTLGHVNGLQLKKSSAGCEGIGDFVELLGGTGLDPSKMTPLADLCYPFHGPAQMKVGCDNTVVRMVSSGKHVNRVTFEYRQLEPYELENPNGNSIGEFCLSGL
# [4] = target: T1, Heat shock factor protein 1; assay: decrease of HSF1-responsive luciferase luminescence – cell-based, NIH3T3, dose retest, confirmation (AID 2382); assay type: functional;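 note: NIH3T3 fibroblasts with HSF1-driven luciferase reporter stressed by proteasome inhibitor MG132; luminescence from HSF1-driven luciferase expression after 8 hours of MG132 stress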
# [5] = NIH3T3 cell viability loss – ATP luminescence, mouse fibroblasts, counter-screen, dose response (AID 2010); assay type: functional, cell-based;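 note: cells exposed to compound for about 90 hours before reading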
# [6] = Trypanosoma cruzi growth suppression in host cells – NIH3T3 host cells, beta-gal luminescence, confirmation (AID 2044); assay type: functional, cell-based;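 note: intracellular parasites grown in NIH/3T3 mouse fibroblasts as host cells; luminescent beta-galactosidase reporter signal from transgenic T. cruzi replicating inside host cells; inhibitors lower the luminescence signal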
# [7] = test system: Streptococcus; assay: GAS UMAA2166 growth inhibition – luminescence, BacTiterGlo, counter-screen for streptokinase expression inhibitor project, dose response (AID 1915); assay type: functional, organism-based;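 note: potency for reduction of bacterial viability or growth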
# [8] = test system: Streptococcus sp. 'group A'; assay: Streptococcus pyogenes SK(-)GAS viability under kanamycin – luminescence, BacTiterGlo, confirmation, counter-screen for streptokinase expression inhibitor project, dose response (AID 1900); assay type: functional, organism-based
# Cytochrome P450 2D6, sequence (P10635 whole entry): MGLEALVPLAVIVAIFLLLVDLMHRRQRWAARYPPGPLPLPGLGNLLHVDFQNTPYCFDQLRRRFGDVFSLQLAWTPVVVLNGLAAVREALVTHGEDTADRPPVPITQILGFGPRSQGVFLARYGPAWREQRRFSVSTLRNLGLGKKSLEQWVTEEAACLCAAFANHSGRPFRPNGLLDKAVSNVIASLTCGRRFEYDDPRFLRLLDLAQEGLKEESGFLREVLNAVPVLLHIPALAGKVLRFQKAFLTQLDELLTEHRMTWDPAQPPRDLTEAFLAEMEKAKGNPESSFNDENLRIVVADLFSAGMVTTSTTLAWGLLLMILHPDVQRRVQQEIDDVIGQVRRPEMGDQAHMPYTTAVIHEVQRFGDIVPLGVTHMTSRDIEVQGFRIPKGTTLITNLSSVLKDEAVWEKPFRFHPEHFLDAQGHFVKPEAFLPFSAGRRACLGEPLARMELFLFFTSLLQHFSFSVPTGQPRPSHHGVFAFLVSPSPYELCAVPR
smiles,measurement,setting,value
CCCC(=O)NCCc1c2n(c3ccc(OC)cc13)Cc1ccccc1-2,AC50,[1],39.8 µM (inconclusive)
Cc1ccnc(NC(=O)c2cc3cc(F)ccc3s2)c1,EC50,[2],> 260 µM (inactive)
CCOc1ccc(NS(=O)(=O)c2ccc(C(=O)NCC(c3ccco3)N3CCCC3)cc2)cc1 (configuration not stated),EC50,[3],6.17 µM (active)
CCc1cccc(NC(=O)C2CCCN(S(=O)(=O)c3cccs3)C2)c1 (configuration not stated),EC50,[4],> 195 µM (not active)
O=C(Nc1cccc(S(=O)(=O)N2CCOCC2)c1)c1cn(-c2ccccc2)nc1-c1ccc(F)cc1,EC50,[5],> 60 µM (inconclusive)
same,EC50,[6],2.49 µM (active)
O=C(NCC1CCCN(Cc2ccc3nonc3c2)C1)c1cccc(C(F)(F)F)c1 (configuration not stated),EC50,[5],> 60 µM (not active)
same,EC50,[6],0.771 µM (active)
COc1ccc(-c2nc(C#N)c(NCc3cccnc3)o2)cc1OC,EC50,[5],> 60 µM (not active)
same,EC50,[6],1.8 µM (active)
CCOC(=O)N1CCN(c2nc(-c3ccco3)cc(C(F)(F)F)n2)CC1,AC50,[1],14.1 µM (inconclusive)
CCOc1cc(CNCC2CCCN2CC)cc(Cl)c1OC (configuration not stated),EC50,[4],63.1 µM (active)
Cc1ccc(C(=O)Cn2nnc(-c3ccccc3-n3cnnn3)n2)cc1,EC50,[2],> 260 µM (inactive)
c1cn(-c2ncnc3ccc(-c4ccoc4)cc23)cn1,AC50,[1],39.8 µM (inconclusive)
CCC12CN3CC(CC)(CN(C1)C3c1ccc([N+](=O)[O-])o1)C2=O (configuration not stated),EC50,[5],> 30 µM (not active)
same,EC50,[6],0.85 µM (active)
Cc1c(Cl)cccc1NC(=O)Nc1cnccn1,EC50,[4],> 195 µM (not active)
O=C(NCCc1nc2ccccc2[nH]1)/C(=C/c1ccc(F)cc1)NC(=O)c1ccco1,EC50,[2],> 260 µM (inactive)
O=C(COC(=O)COc1cccc(Br)c1)Nc1c(Cl)cccc1Cl,EC50,[2],> 260 µM (inactive)
O=[N+]([O-])c1cc(Br)c(OCc2nnc(-c3ccccc3)o2)c(Br)c1,EC50,[5],> 60 µM (not active)
same,EC50,[6],1.75 µM (active)
Cc1cc(Cn2ccnc2)c(C)cc1Cn1ccnc1,EC50,[5],> 60 µM (not active)
same,EC50,[6],2.45 µM (active)
Cc1ccc(C(NC(=O)/C=C\c2ccc3c(c2)OCO3)C(=O)Nc2ccc3c(c2)OCO3)cc1 (configuration not stated),EC50,[2],> 260 µM (inactive)
COC(=O)CNC(c1ccccc1)c1cc(Br)ccc1NC(=O)CCN1CCOCC1 (configuration not stated),EC50,[5],> 60 µM (not active)
same,EC50,[6],6.7 µM (active)
Cc1ccc(-n2nc3c(=O)n(CCCC(=O)N4CCC(C(N)=O)CC4)nc(C)c3c2C)cc1,EC50,[4],> 195 µM (not active)
COc1ccc(/C=C(\C#N)C(=O)Nc2cccc(C)n2)cc1,EC50,[2],165 µM (active)
CCOC(=O)c1c(NC(C)=O)sc2c(OCCN(CC)CC)c(Br)ccc12,EC50,[5],> 60 µM (not active)
same,EC50,[6],1.58 µM (active)
Cn1c(N)c(C(=O)Nc2ccc(-c3ccccc3)cc2)sc1=S,EC50,[4],> 195 µM (not active)
COc1cc(OC)cc(C(=O)Nc2nc(-c3ccccc3)c(-c3ccccc3)o2)c1,EC50,[7],1.34 µM (active)
same,EC50,[8],617 nM (active)
COCc1cc(CN2CCN(CCc3ccccc3)C(CCO)C2)ccc1OC (configuration not stated),EC50,[2],> 260 µM (inactive)
O=C1CC(c2ccc(Cl)cc2)n2nc(NS(=O)(=O)c3ccc(F)cc3)nc2N1 (configuration not stated),EC50,[2],> 260 µM (inactive)
O=C(Cc1ccccc1)Oc1ccccc1N1C(=O)CCC1=O,EC50,[4],> 195 µM (not active)
CCOc1ccc(/C=C2\SC(=O)N(CCNC(=O)C3COc4ccccc4O3)C2=O)cc1OC (configuration not stated),EC50,[4],> 195 µM (not active)
COc1ccccc1C(=O)C1CCCN(Cc2c[nH]nc2C2CCCCC2)C1 (configuration not stated),EC50,[5],> 60 µM (not active)
same,EC50,[6],0.604 µM (active)
CCN(CC)c1ccc(/C=C2/C(=O)N(c3ccc([N+](=O)[O-])cc3)N=C2N2CCOCC2)cc1,EC50,[2],> 260 µM (inactive)
C=CCC(C(=O)OC)(C(=O)OC)c1ccc([N+](=O)[O-])cc1[N+](=O)[O-],EC50,[5],> 60 µM (not active)
same,EC50,[6],2.42 µM (active)
COCCN(Cc1c[nH]nc1-c1ccc2cc(OC)ccc2c1)C(C)C,EC50,[5],> 60 µM (not active)
same,EC50,[6],1.56 µM (active)
Cc1ccc(OCC(=O)c2cc(C)n(-c3ccccc3)c2C)c([N+](=O)[O-])n1,EC50,[4],0.623 µM (active)
CCn1c2ccccc2c2cc(NS(=O)(=O)c3ccccc3C)ccc21,AC50,[1],8.91 µM (inconclusive)
COc1ccc(OC)c(Nc2nc3ccc(C)cc3n3cnnc23)c1,EC50,[2],> 260 µM (inactive)
Cc1ccc(C(=O)NCCc2nc3ccccc3[nH]2)cc1[N+](=O)[O-],EC50,[5],> 60 µM (inconclusive)
same,EC50,[6],1.03 µM (active)
CCN=C(S)NNC(=O)c1cccn(Cc2ccc(Cl)cc2Cl)c1=O,EC50,[3],7.26 µM (active)
O=C(NCc1ccccn1)c1cc(-c2ccc(-c3ccccc3)cc2)nc2ccccc12,EC50,[2],0.461 µM (active)
CN(C)C(CNC(=O)CCC(=O)c1ccc(Br)cc1)c1ccccc1 (configuration not stated),EC50,[2],> 260 µM (inactive)
CCCCOc1ccc(CSC2=NCCN2)cc1[N+](=O)[O-],EC50,[5],> 30 µM (not active)
same,EC50,[6],0.46 µM (active)
Cc1ccc(-n2nc(C)c3cc(C(=O)O)sc32)cc1,EC50,[4],> 195 µM (not active)
CN(C)S(=O)(=O)N1CCN(C(=O)N2CCCCC2)CC1,EC50,[4],> 195 µM (not active)
O=[N+]([O-])c1ccc(Nc2ccc(F)cc2)cc1,EC50,[4],> 195 µM (not active)
O=C(c1ccc(-n2cncn2)c([N+](=O)[O-])c1)N1CCN(S(=O)(=O)c2ccccc2F)CC1,EC50,[4],> 195 µM (not active)
CCN(C(=O)c1cc2c(O)nc3ccc(C)cc3c2s1)c1ccccc1F,EC50,[2],> 260 µM (inactive)
O=S(=O)(NC1CCCCC1N1CCN(c2ccc(F)cc2)CC1)c1ccc(Cl)cc1 (configuration not stated),EC50,[3],3.94 µM (active)
Cc1cccc(C(=O)NNC(=O)CCn2nnc3ccccc32)c1,EC50,[2],> 260 µM (inactive)
COc1ccc(C(=O)C2=C(O)C(=O)N(CCN(C)C)C2c2cccnc2)cc1C (configuration not stated),EC50,[3],> 53 µM (inactive)
CS/C(=N\C#N)N1CCN(c2ccc(Cl)cc2)CC1,EC50,[2],129 µM (active)
C/C(CC(=O)Nc1cccc2c1CCCC2)=N\NC(=O)COc1ccccc1,EC50,[2],> 260 µM (inactive)
Cc1nc2c(cc1C(=O)N/N=C/c1ccc(O)c(O)c1)c(=O)n(C)c(=O)n2C,EC50,[4],> 195 µM (not active)
C/C(=N\NC(=O)C(N)=O)c1ccc(O)cc1O,EC50,[4],> 195 µM (not active)
O=C(N/N=C/c1ccc(-c2ccc(Br)cc2)o1)c1ccc2c(c1)OCO2,EC50,[5],> 60 µM (inconclusive)
same,EC50,[6],1.47 µM (active)
CC(/C=N\NC(=O)c1cc(C)oc1C)=C\c1ccccc1,EC50,[4],> 195 µM (not active)
CCn1c(N)nc2ccccc21,AC50,[1],17.8 µM (inconclusive)
COc1ccc(CNc2ncnc3ccc(-c4cccc(NS(C)(=O)=O)c4)cc23)c(OC)c1,AC50,[1],10 µM (inconclusive)
CCOC(=O)NNc1nncc2ccccc12 [TODRALAZINE],AC50,[1],12.6 µM (inconclusive)
